Experimental data: ChEMBL document CHEMBL4813957, “Antitubercular properties of thiazolidin-4-ones - A review” (Eur J Med Chem, 2021)
≈ marks a conversion by molar mass, not a printed value.

These molecules were tested on Mycobacterium tuberculosis (assay: Antimycobacterial activity against Mycobacterium tuberculosis H37Rv ATCC27294 measured after 28 days by two-fold serial dilution method). Settings: H37Rv ATCC 27294, 672 h, time 28 day.
Format: functional

Going from `CC[C@@H](CO)NCCN[C@@H](CC)CO` [ETHAMBUTOL] to `COc1cc(/C=C2\SC(=N)N(c3ncc([N+](=O)[O-])s3)C2=O)cc(OC)c1OC`, the MIC falls from 7.64 µM (≈ 1.56 µg/mL) to 3.31 µM (≈ 1.4 µg/mL) (2.3-fold).

`N=C1S/C(=C\c2ccccc2F)C(=O)N1c1ncc([N+](=O)[O-])s1` and `N=C1S/C(=C\c2ccccc2F)C(=O)N1c1nc2ccc([N+](=O)[O-])cc2s1` are within 1.5-fold of each other in MIC: 3.9 µM (≈ 1.37 µg/mL) for the first, 4.26 µM (≈ 1.71 µg/mL) for the second.

`COc1cc(/C=C2\SC(=N)N(c3nc4ccc([N+](=O)[O-])cc4s3)C2=O)cc(OC)c1OC` and `N=C1S/C(=C\c2cc([N+](=O)[O-])co2)C(=O)N1c1nc2ccc([N+](=O)[O-])cc2s1` are within 1.5-fold of each other in MIC: 7.4 µM (≈ 3.5 µg/mL) for the first, 6.81 µM (≈ 2.84 µg/mL) for the second.

Compared with `COc1ccc(/C=C2\SC(=N)N(c3cccc(C(F)(F)F)c3)C2=O)cc1`, `N=C1S/C(=C\c2ccc(OCc3ccccc3)cc2)C(=O)N1c1cccc(C(F)(F)F)c1` is 1.7-fold higher in MIC: 4.12 µM (≈ 1.56 µg/mL) for the first, 6.88 µM (≈ 3.13 µg/mL) for the second.

`N=C1S/C(=C\c2ccc(OCc3ccccc3)cc2)C(=O)N1c1ncc([N+](=O)[O-])s1` and `N=C1S/C(=C\c2cc([N+](=O)[O-])cs2)C(=O)N1c1ncc([N+](=O)[O-])s1` are within 1.5-fold of each other in MIC: 6.4 µM (≈ 2.81 µg/mL) for the first, 7.21 µM (≈ 2.76 µg/mL) for the second.

`N=C1S/C(=C\c2cc([N+](=O)[O-])co2)C(=O)N1c1cccc(C(F)(F)F)c1` and `N=C1S/C(=C\c2ccccc2F)C(=O)N1c1cccc(C(F)(F)F)c1` are within 1.5-fold of each other in MIC: 4.07 µM (≈ 1.56 µg/mL) for the first, 4.25 µM (≈ 1.56 µg/mL) for the second.

`N=C1S/C(=C\c2cc([N+](=O)[O-])co2)C(=O)N1c1ncc([N+](=O)[O-])s1` gave an MIC of 7.49 µM (≈ 2.75 µg/mL).

These molecules were tested on Mycobacterium tuberculosis (assay: Antimycobacterial activity against Mycobacterium tuberculosis H37Rv by filter paper disc diffusion method). Settings: not given.
Format: functional

`O=C(NCCCn1ncc2ccc([N+](=O)[O-])cc21)N1C(=O)/C(=C/c2cccc(Br)c2)SC1c1cccc(Br)c1` (stereo not drawn) and `O=C(NCCCn1ncc2ccc([N+](=O)[O-])cc21)N1C(=O)/C(=C/c2cccc(Cl)c2)SC1c1cccc(Cl)c1` (stereo not drawn) are within 1.5-fold of each other in MIC: 1.25 µg/mL (≈ 1.86 µM) for the first, 1.5 µg/mL (≈ 2.58 µM) for the second.

`O=C(NCCCn1ncc2ccc([N+](=O)[O-])cc21)N1C(=O)/C(=C/c2ccc([N+](=O)[O-])cc2)SC1c1ccc([N+](=O)[O-])cc1` (stereo not drawn) and `O=C(NCCCn1ncc2ccc([N+](=O)[O-])cc21)N1C(=O)/C(=C/c2cccc([N+](=O)[O-])c2)SC1c1cccc([N+](=O)[O-])c1` (stereo not drawn) are within 1.5-fold of each other in MIC: 1.5 µg/mL (≈ 2.49 µM) for the first, 1.75 µg/mL (≈ 2.9 µM) for the second.

Compared with `O=C(NCCCn1ncc2ccc([N+](=O)[O-])cc21)N1C(=O)/C(=C/c2ccccc2Cl)SC1c1ccccc1Cl` (stereo not drawn), `O=C(NCCCn1ncc2ccc([N+](=O)[O-])cc21)N1C(=O)/C(=C/c2ccccc2Br)SC1c1ccccc1Br` (stereo not drawn) is 1.9-fold higher in MIC: 2.25 µg/mL (≈ 3.86 µM) for the first, 4.25 µg/mL (≈ 6.33 µM) for the second.

`O=C1CSC(c2ccccc2[N+](=O)[O-])N1C(=O)NCCCn1ncc2ccc([N+](=O)[O-])cc21` (stereo not drawn) and `O=C1CSC(c2ccccc2Br)N1C(=O)NCCCn1ncc2ccc([N+](=O)[O-])cc21` (stereo not drawn) are within 1.5-fold of each other in MIC: 3.75 µg/mL (≈ 7.97 µM) for the first, 4.75 µg/mL (≈ 9.42 µM) for the second.

`O=C(NCCCn1ncc2ccc([N+](=O)[O-])cc21)N1C(=O)/C(=C/c2ccc(Br)cc2)SC1c1ccc(Br)cc1` (stereo not drawn) and `O=C(NCCCn1ncc2ccc([N+](=O)[O-])cc21)N1C(=O)/C(=C/c2ccc(Cl)cc2)SC1c1ccc(Cl)cc1` (stereo not drawn) are within 1.5-fold of each other in MIC: 2.5 µg/mL (≈ 3.72 µM) for the first, 3.25 µg/mL (≈ 5.58 µM) for the second.

`O=C1CSC(c2cccc([N+](=O)[O-])c2)N1C(=O)NCCCn1ncc2ccc([N+](=O)[O-])cc21` (stereo not drawn) and `O=C1CSC(c2ccc([N+](=O)[O-])cc2)N1C(=O)NCCCn1ncc2ccc([N+](=O)[O-])cc21` (stereo not drawn) are the same in MIC: 4.25 µg/mL (≈ 9.03 µM) for the first, 4.25 µg/mL (≈ 9.03 µM) for the second.

Compared with `O=C1CSC(c2ccccc2)N1C(=O)NCCCn1ncc2ccc([N+](=O)[O-])cc21` (stereo not drawn), `O=C1CSC(c2cccc(Br)c2)N1C(=O)NCCCn1ncc2ccc([N+](=O)[O-])cc21` (stereo not drawn) is 1.7-fold lower in MIC: 7.5 µg/mL (≈ 17.6 µM) for the first, 4.5 µg/mL (≈ 8.92 µM) for the second.

`O=C1CSC(c2ccc(Br)cc2)N1C(=O)NCCCn1ncc2ccc([N+](=O)[O-])cc21` (stereo not drawn) and `O=C1CSC(c2ccc(Cl)cc2)N1C(=O)NCCCn1ncc2ccc([N+](=O)[O-])cc21` (stereo not drawn) are within 1.5-fold of each other in MIC: 5.25 µg/mL (≈ 10.4 µM) for the first, 4.75 µg/mL (≈ 10.3 µM) for the second.

Compared with `O=C(NCCCn1ncc2ccc([N+](=O)[O-])cc21)N1C(=O)/C(=C/c2ccccc2)SC1c1ccccc1` (stereo not drawn), `O=C(NCCCn1ncc2ccc([N+](=O)[O-])cc21)N1C(=O)/C(=C/c2ccccc2[N+](=O)[O-])SC1c1ccccc1[N+](=O)[O-]` (stereo not drawn) is 2.8-fold lower in MIC: 6.25 µg/mL (≈ 12.2 µM) for the first, 2.25 µg/mL (≈ 3.73 µM) for the second.

`O=C1CSC(c2cccc(Cl)c2)N1C(=O)NCCCn1ncc2ccc([N+](=O)[O-])cc21` (stereo not drawn) and `O=C1CSC(c2ccccc2Cl)N1C(=O)NCCCn1ncc2ccc([N+](=O)[O-])cc21` (stereo not drawn) are within 1.5-fold of each other in MIC: 4.5 µg/mL (≈ 9.78 µM) for the first, 4.25 µg/mL (≈ 9.24 µM) for the second.
